Measurements published in paper PMC5342726, “Identification of small molecule inhibitors of ERCC1-XPF that inhibit DNA repair and potentiate cisplatin efficacy in cancer cells” (Oncotarget, 2016).

Molecular target: T1, ERCC1-XPF (Homo sapiens, UniProt P07992+Q92889)
T1 construct: made in house; host or cells: Sf9 insect cells, baculovirus (obtained from Aziz Sancar)
T1 sequence (Q92889 1-916): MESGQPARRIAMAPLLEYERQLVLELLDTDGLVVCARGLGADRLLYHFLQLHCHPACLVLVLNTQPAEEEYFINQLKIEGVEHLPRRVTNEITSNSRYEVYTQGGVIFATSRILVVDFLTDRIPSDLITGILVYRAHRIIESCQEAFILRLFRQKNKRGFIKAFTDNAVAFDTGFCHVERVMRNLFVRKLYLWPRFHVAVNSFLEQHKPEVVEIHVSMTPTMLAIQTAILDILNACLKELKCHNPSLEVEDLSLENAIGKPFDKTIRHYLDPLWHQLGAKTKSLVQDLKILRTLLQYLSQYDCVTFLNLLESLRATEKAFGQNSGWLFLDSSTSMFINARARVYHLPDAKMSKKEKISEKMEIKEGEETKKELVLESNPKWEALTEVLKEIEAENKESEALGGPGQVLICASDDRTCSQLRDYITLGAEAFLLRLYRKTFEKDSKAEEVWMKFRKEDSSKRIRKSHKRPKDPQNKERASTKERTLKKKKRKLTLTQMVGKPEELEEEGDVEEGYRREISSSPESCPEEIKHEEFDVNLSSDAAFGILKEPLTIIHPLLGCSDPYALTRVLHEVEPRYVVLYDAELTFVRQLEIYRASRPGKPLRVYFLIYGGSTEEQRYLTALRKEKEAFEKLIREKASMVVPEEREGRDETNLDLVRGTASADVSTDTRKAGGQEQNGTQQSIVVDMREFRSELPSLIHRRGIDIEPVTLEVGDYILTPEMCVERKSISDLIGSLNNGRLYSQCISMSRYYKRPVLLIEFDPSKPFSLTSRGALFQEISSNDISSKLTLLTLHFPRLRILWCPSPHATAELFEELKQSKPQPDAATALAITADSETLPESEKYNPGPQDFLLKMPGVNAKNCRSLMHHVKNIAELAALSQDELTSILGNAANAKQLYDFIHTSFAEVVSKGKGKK
T1 sequence (P07992 1-297): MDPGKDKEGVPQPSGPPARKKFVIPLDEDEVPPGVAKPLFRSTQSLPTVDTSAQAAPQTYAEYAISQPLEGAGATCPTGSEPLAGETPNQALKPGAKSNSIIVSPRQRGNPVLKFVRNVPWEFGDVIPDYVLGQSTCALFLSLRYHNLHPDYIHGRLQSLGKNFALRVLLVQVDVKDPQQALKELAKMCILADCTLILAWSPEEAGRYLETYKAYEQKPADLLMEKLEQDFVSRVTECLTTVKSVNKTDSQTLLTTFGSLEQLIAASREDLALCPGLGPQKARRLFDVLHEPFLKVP
Assay: Rapid dilution experiment for reversible or irreversible binding
Assay type: biochemical
Details: for recovery of enzymatic activity after rapid dilution: 100-fold enzyme preincubated 30 min with 10 times IC90, diluted 100-fold; for reversibility of binding to ERCC1-XPF: rapid dilution method
Protocol: Next, to determine reversible or irreversible binding, we used a rapid dilution method. Here, the amount of enzyme (ERCC1-XPF) is increased 100-fold above what is normally used in a reaction and is pre-incubated for 30 minutes with a concentration of the SMI 10-times greater than the IC90 concentration or with vehicle control. After incubation, the enzyme/inhibitor mixture is diluted 100-fold (i.e., to normal reaction conditions) in the reaction buffer with the DNA substrate at normal reaction conditions. A reversible inhibitor dissociates quickly, allowing immediate recovery of enzymatic activity, whereas a slowly reversible inhibitor allows a gradual increase in activity. In contrast, an irreversible inhibitor prevents recovery of any enzymatic activity. […]
Analysis of DNA binding treatment) was used as 100% intrastrand adducts in each […]
Rapid dilution experiments as described previously […]
of the identified compounds – Hit 1 (NSC143099) and Hit comet assay
2 (NSC16168) to ERCC1-XPF. Briefly, in a 10 μl reaction, ERCC1-XPF concentration was increased 100-fold from Repair of interstrand crosslinks (ICLs) normal reaction conditions of 7.5 nM and mixed with 10 was assessed by alkaline comet assay with some times the IC90 concentration of the compound or vehicle modifications. Cells were treated with compound (Hit control (9:1 DMSO-glycerol). After incubation at 37°C 1 or Hit 2) and cisplatin or just cisplatin alone in serum for 30 minutes, 2 μL of the pre-incubate was diluted into a free media. For treatment with compound and cisplatin, 198 μL solution containing the DNA substrate and reaction cells were treated with compound at 15 µM for 2 hours buffer described in the methods section for HTS assay in a 96 and then cisplatin was added (at IC90 concentration for well plate. The 96-well plate was read in a Spectramax M5 the cell line used) to the media and these were incubated repeatedly for 60 minutes. The data was plotted as increase for another 2 hours. […]
Cisplatin intrastrand adduct measurement by of hydrogen peroxide for 15 minutes to induce random ELISA DNA strand breaks. Cells were then trypsinized, pelleted and resuspended in 1% low melting point agarose. Cell […]
ELISA as described with some modifications. […] Equal amounts of DNA were coated on 96 kept in neutralizing solution (0.4 M Tris–HCl, pH 7.5) well DNA binding ELISA plates in binding buffer (1M for 10 minutes. Slides were then stained with SYBR sodium chloride, 50 mM sodium phosphate buffer, pH green (Trevigen) and comets were analyzed using a 7.4, 0.02% sodium azide) and incubated at 4°C overnight. […]
The wells were blocked with 1% BSA in PBS for 1 hour Fifty cells were analyzed per slide using Komet Assay at room temperature. […]

| SMILES | recovery of enzymatic activity after rapid dilution | reversibility of binding to ERCC1-XPF |
| --- | --- | --- |
| Oc1cc(O)c2c(c1)OC(c1ccc(O)c(O)c1)C(O)C2c1c(O)cc(O)c2c1OC(c1ccc(O)c(O)c1)C(O)C2 (stereo not shown) [NSC143099] | virtually no recovery of the enzymatic activity | binds irreversibly |
| Cc1ccc(S(=O)(=O)Oc2cc(S(=O)(=O)O)cc3cc(S(=O)(=O)O)cc(N)c23)cc1 [NSC16168] | recovers slowly | moderately reversible inhibitor |
